Test results taken from patent US20050255493A1, “Molecular targeting of the IGF-1 receptor” (priority 2002, published 2005).

Experiments:
IGF1R mRNA = test: Oligonucleotide scanning array hybridisation with labelled transcript; type: binding, human; details: for Rel hyb intensity: relative to the most strongly hybridising sequence on the array; for Hyb intensity: scanning array probed with labelled IGF1R mRNA
Experimental: Scanning arrays complementary to the region of the IGF1R mRNA from position 537-685 were prepared using the standard techniques described in Southern E. M. et al., Nucleic Acids Res., 1994, 22(8): 1368-1373; and Sohail, M. and Southern, E. M. “Using oligonucleotide scanning arrays to find effective antisense reagents”, Methods in Molecular Biology, vol. 170: DNA Arrays: Methods and Protocols, Ed J. B. Rampal, Humana Press Inc., Totowa, N.J.
The scanning arrays comprise sets of oligonucleotides of various lengths. A series of oligonucleotides, complementary to the target mRNA, is made by sequential coupling of nucleotides to a solid surface. The DNA synthesis reagents are applied to a confined area on the surface of the solid support using a mask. The mask is shifted along the surface after each round of coupling, resulting in a series of oligonucleotides each complementary to a region of the target sequence.
• 2. Remove 1 μL for quantitation (see below). • 3. Remove unincorporated label by Sephadex® G25 column chromatography (see Note 11). • 4. Save 1 μL of the purified transcript for quantitation (see below). • 5. Check the integrity of the transcript by denaturing polyacrylamide gel electrophoresis (10). • 6. Add 10 μL of the scintillation fluid to the samples saved in Steps 2 and 4. • 7. Mix by vortexing and count the samples in a scintillation counter for 1 min. • 8. Calculate the percent incorporation: [formula] • 9. Calculate the amount of RNA made: [formula] Hybridisation to Arrays Made on Polypropylene • 1. Place the array in the hybridisation tube, coiling it in a spiral. • 2. Dilute the radiolabelled transcript in an appropriate volume (10-20 mL depending upon the size of the array and the hybridisation tube) of hybridisation buffer. The mix should cover the array along the length of the tube. • 3. Place items 1 and 2 in the oven at desired temperature for 30 min. Also put approximately 100 mL of the hybridisation buffer in the oven: this is to be used to wash the array at the end of hybridisation. • 4. Pour the hybridisation mix into the tube containing the array and hybridise for 3-4 h. • 5. Remove the hybridisation mix. Briefly wash the array with the hybridisation buffer from Step 3, air dry, cover with cling film and expose to a storage phosphor screen for 16-20 h (see Note 12). • 6. Scan the screen on PhosphorImager or STORM and analyse the image using xvseq (see below). Hybridisation to Arrays Made on Glass • 1. Clean the non-array glass plate with acetone and ethanol to ensure it is grease-free and siliconise it by treatment with dimethyl dichlorosilane solution and place it in lidded box. Also place moist paper towel in the box. • 2. Dilute the radiolabelled transcript in an appropriate volume of the hybridisation buffer (for example, for an array of 250 mm×50 mm use 500-750 μL). • 3. Place items 1 and 2 in an incubator at desired temprature for 30 min. Also put approximately 100 mL of the hybridisation buffer in the oven: this is to be used to wash the array at the end of hybridisation. • 4. Using a micropipette, pipette the hybridisation mix in a line evenly along the length of the non-array glass plate, avoiding formation of air bubbles. • 5. Starting at one end, carefully place the scanning array (face down) on top of the hybridisation mix. The mix will spread out and form a thin film between the two plates. Incubate for 3-4 h. • 6. Separate the plates from each other and wash the array plate with hybridisation buffer to remove unbound mix. Drain the plate, air dry, cover with cling film and expose to a storage phosphor screen for 16-20 h. • 7. Scan the screen on PhosphorImager or STORM and analyse the image using xvseq (see below). Alternative Hybridisation Protocol for Glass or Polypropylene • 1. Assemble with clips the array plate (or polypropylene array pasted with PhotoMount™ on a glass plate) and the non-array plate, using rubber tubing as spacers on two sides. • 2. […]

IGF1R [1] = test: IGF1R expression in UC101 ovarian cancer cells treated with 18mer ASOs; type: cell-based, human
Experimental: The human and murine cell lines used in this study were cultured in RPMI 1640 plus 10% FCS at 37° C. in a humidified atmosphere of 5% CO2. The cultures were negative when tested for Mycoplasma infection. Cultures were passaged the day before transfection to achieve 30-50% confluence the following day. Initial transfections of ASOs used 1-2.5 μg/ml Cytofectin (Glen Research, Sterling, Va.), according to the manufacturer's instructions. Latterly Oligofectamine (Life Sciences) has been used for all ASO and RNAi transfections. The method was as described (see manufacturer's instructions and www.dharmacon.com) with minor modifications. For transfection of monolayers seeded in 6 well plates, 5 μl phosphorothioate oligonucleotide or RNA duplex at 100× final concentration were mixed with 2501 serum-free Optimem (Gibco-BRL). In a separate tube 2 μl Oligofectamine was mixed with 68 μl Optimem. After 10 min incubation at room temperature the contents of the two tubes were mixed and incubated for a further 25 min at room temperature. Monolayers were washed with 1-2 ml Optimem. To the cells were added 175 μl Optimem followed by the 325 μl complexes. […] After 48 hr incubation effects on IGF1R and IR expression were determined by immunoblotting. […]
IGF1R expression was assessed by immunoblotting as previously described (Macaulay et al 2001). […] Lysates were centrifuged for 15 minutes at 14,000 g, the protein concentration of supernatants was measured using BCA assay reagent (Pierce), and equivalent amounts of protein were separated on 7.5% SDS-PAGE gels and transferred to nitrocellulose. Target protein levels were assessed using antibodies to the β-subunit of the IGF1R or IR (Santa Cruz), phospho-Ser 473 Akt or total Akt (Cell Signalling, New England Biolabs) or β-tubulin (Sigma). Activated IGF1R was detected by immunoprecipitation for phosphotyrosine (P-Tyr-100, Cell Signaling Technology). Primary antibodies were detected with HRP-conjugated secondary antibodies (Dako), and ECL Plus (Amersham Pharmacia). […]

IR = IR level by immunoblotting in transfected MDA-231 cells; type: cell-based, human
Experimental: (§1) The human and murine cell lines used in this study were cultured in RPMI 1640 plus 10% FCS at 37° C. in a humidified atmosphere of 5% CO2. The cultures were negative when tested for Mycoplasma infection. Cultures were passaged the day before transfection to achieve 30-50% confluence the following day. Initial transfections of ASOs used 1-2.5 μg/ml Cytofectin (Glen Research, Sterling, Va.), according to the manufacturer's instructions. Latterly Oligofectamine (Life Sciences) has been used for all ASO and RNAi transfections. The method was as described (see manufacturer's instructions and www.dharmacon.com) with minor modifications. For transfection of monolayers seeded in 6 well plates, 5 μl phosphorothioate oligonucleotide or RNA duplex at 100× final concentration were mixed with 2501 serum-free Optimem (Gibco-BRL). In a separate tube 2 μl Oligofectamine was mixed with 68 μl Optimem. After 10 min incubation at room temperature the contents of the two tubes were mixed and incubated for a further 25 min at room temperature. Monolayers were washed with 1-2 ml Optimem. To the cells were added 175 μl Optimem followed by the 325 μl complexes. Volumes were scaled up by factors of 2.22 or 6.05 for transfection in 60 mm or 100 mm dishes respectively. Cultures were incubated at 37° C. for 4 hr, and then 50 μl FCS and 3.5 ml RPMI plus 5% FCS were added to each well. After 48 hr incubation effects on IGF1R and IR expression were determined by immunoblotting. Some transfected cultures were serum-starved overnight, divided into two aliquots and treated with 10 nM Long R3-IGF-I (GroPep, Adelaide) or diluent for 30 min at 37° C. prior to lysis.
(§2) IGF1R expression was assessed by immunoblotting as previously described (Macaulay et al 2001). After washing in ice-cold PBS, cells were lysed in 50 mM Hepes pH 7.5, 100 mM NaCl, 10 mM EDTA, 1% Triton-X-100, 4 mM sodium pyrophosphate, 2 mM sodium orthovanadate, 10 mM sodium fluoride, 1 mM PMSF, 2 μg/ml each leupeptin and aprotinin. Lysates were centrifuged for 15 minutes at 14,000 g, the protein concentration of supernatants was measured using BCA assay reagent (Pierce), and equivalent amounts of protein were separated on 7.5% SDS-PAGE gels and transferred to nitrocellulose. Target protein levels were assessed using antibodies to the β-subunit of the IGF1R or IR (Santa Cruz), phospho-Ser 473 Akt or total Akt (Cell Signalling, New England Biolabs) or β-tubulin (Sigma). Activated IGF1R was detected by immunoprecipitation for phosphotyrosine (P-Tyr-100, Cell Signaling Technology). Primary antibodies were detected with HRP-conjugated secondary antibodies (Dako), and ECL Plus (Amersham Pharmacia).
(§3) The ASOs and RNAi duplexes were transfected into MDA-231 cells (human ER negative breast cancer) using Cytofectin or Oligofectamine, as described above. After 48 hr the cells were lysed, and IGF1R and IR levels were measured by immunoblotting. The intensity of the autoradiographic bands was quantified by densitometry, and IGF1R (or IR) levels were corrected for loading differences. The specific IGF1R or IR results are presented as % IGF1R (or IR) level of that in cells transfected with the same concentration of an appropriate control. This was a scrambled control oligonucleotide for ASOs, and an inverted RNA duplex for RNAi.

IGF1R [2] = test: IGF1R level by immunoblotting in transfected MDA-231 cells; type: cell-based, human; details: MDA-231 cells, 300 nM ASO, 48 hr, vs scrambled control
Experimental: as §1, §2, §3

[3] = tested on: UC101 human ovarian cancer cells; test: Tumorigenicity of UC101 ovarian cancer cells transfected with siRNA (xenografts); type: in vivo, female athymic (nu/nu mice); details: UC101 cells transfected with 200 nM siRNA, nu/nu mice
Experimental: UC101 ovarian cancer cells were transfected with 200 nM siRNA, mixed with irradiated NIH-3T3 cells and inoculated into the flanks of female athymic (nu/nu mice).
Tumorigenicity testing was conducted using UC101 human ovarian cancer cells transfected with 200 nM siRNA. After 48 hr the cells were inoculated into the flanks of female athymic (nu/nu mice), using 5×10^6 tumour cells mixed with 5×10^6 irradiated NIH-3T3 cells per mouse. Tumours were measured and volumes calculated as described (Macaulay et al., Oncogene 20: 2029-40, 2001). All procedures were performed in accordance with the Home Office Scientific Procedures Act 1986, and with the approval of the Animal Ethics Committee of Cancer Research UK.

MDA-MB-231 cells = test: Clonogenic survival and post-irradiation survival (SF2) of transfected MDA-MB-231 cells; type: cell-based, human; details: MDA-MB-231, 100 nM, unirradiated
Experimental: FIG. 7 A) MDA-MB-231 cells transfected with 100 nM RNA duplexes were serum-starved overnight and treated with 50 nM IGF-I for 30 min. […] Results represent mean±sem of colony counts in triplicate dishes. Similar results were obtained in two further clonogenic assays. • C) Clonogenic survival of transfected MDA-MB-231 cells that were unirradiated or irradiated at 2Gy. The fraction surviving 2Gy irradiation (SF2) is shown as mean±sem of three independent assays.
The effect of transfection with 100 nM ASO4 or siRNA duplexes R4 and R5, equivalent to strongly and weakly hybridizing ASOs respectively, on colony forming efficiency and post-irradiation survival was also evaluated. […] This in turn illustrates the utility of hybridisation to the scanning ASO array in the selection of siRNA reagents, since relative hybridisation to the array is found to be predictive of activity in RNA interference and biological efficacy.

IGF1R [4] = test: IGF1R levels by immunoblotting in human tumour cell lines transfected with RNAi duplexes; type: cell-based; details: human ovarian (UC101) and prostate (DU145) cancer cells, 10 nM
Experimental: as §1
as §2, with “Pharmacia). […]” for “Pharmacia).”
Tumour cells were transfected with 10 nM duplexes and IGF1R levels were measured after 48 hr. After correction for loading differences IGF1R levels in cells transfected with RNAi were expressed as % of levels in cells transfected with equivalent inverted control duplex.

Substance	Rel hyb intensity (IGF1R mRNA)	Hyb intensity (IGF1R mRNA)	IGF1R expression, % of levels in cells treated with scrambled control (IGF1R [1])	Hybridisation to IGF1R mRNA on scanning array (IGF1R mRNA; 37° C. (and 23° C.))	IR Protein Level (% control) (IR; 300 nM ASO, 48 hr, vs scrambled control)	IGF1R Protein Level (% control) (IGF1R [2])	Tumour development [3]	Clonogenic survival (MDA-MB-231 cells)	IGF1R downregulation, R4 compared with R5 (IGF1R [4])	IR downregulation (IR; TSS ASO at 300 nM)
ASO2/18mer: phosphorothioate antisense oligonucleotide GGTCTTCTCACACATCGG, SEQ ID NO:6 (DNA, all phosphorothioate, methylation of C not given here)	1.00	56,026	39% of levels in cells treated with Scr2	–	–	–	–	–	–	–
ASO6: phosphorothioate antisense oligonucleotide CTTATTCCCCACAATGTA, SEQ ID NO:17; poorly hybridising comparison (DNA, all phosphorothioate, methylation of C not given here)	0.01	560	98% of levels in cells treated with Scr6	hybridises poorly	100	˜150 % control	–	–	–	–
R5: RNAi duplex UGAGUACAACUACCGCUGCTT / TTACUCAUGUUGAUGGCGACG, SEQ ID NO:32 (UGAGUACAACUACCGCUGCNN; second strand not cited, chemistry not fully specified)	–	–	–	–	–	–	rapidly growing tumours	inhibited survival	induced IGF1R downregulation	–
TSS ASO: ASO TCCTCCGGAGCCAGACTT, SEQ ID NO:21, complementary to human IGF1R translation initiation site, identical to that described by Baserga et al. (DNA, all phosphorothioate, methylation of C not given here) [reference compound]	–	–	33% of levels in cells treated with	–	–	–	–	–	–	detectable reduction in IR levels
